Experimental data reported in ChEMBL document CHEMBL1201862, “PubChem BioAssay data set” (2004).
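Five compound concentrations were applied to cells in 96-well plates for 48 hours; endpoints were derived by simple linear interpolation of the resulting dose-response curve. GI50 is the concentration that inhibits growth by half.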 Active and inactive are the calls of the source. Rule as the data show it: active = GI50 up to about 1.1 µM and inactive = higher.

Assays:
Test in all cases: NCI tumour cell line growth inhibition, 48 h
Hs-578T = test system: Hs-578T
CAKI-1 = test system: CAKI-1
SN12C = test system: SN12C
SR = test system: SR
U-251 = test system: U-251
SF-539 = test system: SF-539
HCC 2998 = test system: HCC 2998
KM12 = test system: KM12
HL-60 = test system: HL-60
IGROV-1 = test system: IGROV-1
OVCAR-3 = test system: OVCAR-3
OVCAR-5 = test system: OVCAR-5
M14 = test system: M14
OVCAR-8 = test system: OVCAR-8
HCT-116 = test system: HCT-116
A549 = test system: A549
HT-29 = test system: HT-29
BT-549 = test system: BT-549
SF-295 = test system: SF-295
786-0 = test system: 786-0
SK-MEL-28 = test system: SK-MEL-28
MOLT-4 = test system: MOLT-4
SNB-19 = test system: SNB-19
PC-3 = test system: PC-3
HCT-15 = test system: HCT-15
K562 = test system: K562
MCF7 = test system: MCF7
CCRF-CEM = test system: CCRF-CEM
EKVX = test system: EKVX
UACC-62 = test system: UACC-62
NCI-H23 = test system: NCI-H23
NCI-H460 = test system: NCI-H460
UO-31 = test system: UO-31
SK-OV-3 = test system: SK-OV-3
A498 = test system: A498
NCI-H226 = test system: NCI-H226
TK-10 = test system: TK-10
SNB-75 = test system: SNB-75
RXF 393 = test system: RXF 393
SK-MEL-2 = test system: SK-MEL-2
NCI/ADR-RES = test system: NCI/ADR-RES
ACHN = test system: ACHN
SK-MEL-5 = test system: SK-MEL-5
UACC-257 = test system: UACC-257
HOP-62 = test system: HOP-62
SW-620 = test system: SW-620
MDA-N = test system: MDA-N
MDA-MB-231 = test system: MDA-MB-231
Malme-3M = test system: Malme-3M
LOX IMVI = test system: LOX IMVI
HOP-92 = test system: HOP-92
COLO 205 = test system: COLO 205
OVCAR-4 = test system: OVCAR-4
MDA-MB-435 = test system: MDA-MB-435

In the case of `Cc1cc(/N=N/c2ccccc2C)ccc1N`, the GI50 (Hs-578T) is reported as 15.7 µM (inactive), the GI50 (CAKI-1) is reported as 15.3 µM (inactive) and the GI50 (SN12C) is reported as 12.4 µM (inactive). For the same compound, the GI50 (SR) was 12.7 µM (inactive), the GI50 (U-251) was 14.3 µM (inactive) and the GI50 (SF-539) was 2.54 µM (inactive). For the same compound, the GI50 (HCC 2998) was 12.4 µM (inactive), the GI50 (KM12) was 10.6 µM (inactive) and the GI50 (HL-60) was 2.96 µM (inactive). For the same compound, the GI50 (IGROV-1) was 14.6 µM (inactive), the GI50 (OVCAR-3) was 7.35 µM (inactive) and the GI50 (OVCAR-5) was 17.9 µM (inactive). For the same compound, the GI50 (M14) was 12.4 µM (inactive), the GI50 (OVCAR-8) was 15.2 µM (inactive) and the GI50 (HCT-116) was 15.5 µM (inactive). For the same compound, the GI50 (A549) was 4.32 µM (inactive), the GI50 (HT-29) was 17.3 µM (inactive) and the GI50 (BT-549) was 10.6 µM (inactive). For the same compound, the GI50 (SF-295) was 11.5 µM (inactive), the GI50 (786-0) was 10.5 µM (inactive) and the GI50 (SK-MEL-28) was 21 µM (inactive). The GI50 (MOLT-4) was 2.65 µM (inactive), the GI50 (SNB-19) was 31 µM (inactive) and the GI50 (PC-3) was 11.1 µM (inactive). For the same compound, the GI50 (HCT-15) was 12.1 µM, the GI50 (K562) was 11.4 µM (inactive) and the GI50 (MCF7) was 4.06 µM (inactive). For the same compound, the GI50 (CCRF-CEM) was 1.42 µM (inactive), the GI50 (EKVX) was 15.5 µM (inactive) and the GI50 (UACC-62) was 12.5 µM (inactive). The GI50 (NCI-H23) was 3.99 µM (inactive), the GI50 (NCI-H460) was 3.19 µM (inactive) and the GI50 (UO-31) was 3.02 µM (inactive). The GI50 (SK-OV-3) was 24.8 µM (inactive), the GI50 (A498) was 24.3 µM (inactive) and the GI50 (NCI-H226) was 13.9 µM (inactive). The GI50 (TK-10) was 19.6 µM (inactive), the GI50 (SNB-75) was 5.94 µM (inactive) and the GI50 (RXF 393) was 6.82 µM (inactive). The GI50 (SK-MEL-2) was 15.6 µM (inactive), the GI50 (NCI/ADR-RES) was 11.1 µM (inactive) and the GI50 (ACHN) was 5.52 µM (inactive). The GI50 (SK-MEL-5) was 15.8 µM (inactive), the GI50 (UACC-257) was 17.9 µM (inactive) and the GI50 (HOP-62) was 5.6 µM (inactive). The GI50 (SW-620) was 19.6 µM (inactive), the GI50 (MDA-N) was 18.5 µM (inactive) and the GI50 (MDA-MB-231) was 14.8 µM (inactive). For the same compound, the GI50 (Malme-3M) was 19 µM (inactive), the GI50 (LOX IMVI) was 11.4 µM (inactive) and the GI50 (HOP-92) was 10.5 µM (inactive). The GI50 (COLO 205) was 18.4 µM (inactive), the GI50 (OVCAR-4) was 19.4 µM (inactive) and the GI50 (MDA-MB-435) was 19.5 µM (inactive).
